Source: patent publication US9562035B2, “Benzamide derivative useful as FASN inhibitors for the treatment of cancer” (Janssen Pharmaceutica NV, priority 2013, dated 2017)

Columns and labels:
[1] = molecular target: T1, hFASN enzyme (full length) (Homo sapiens, UniProt P49327); assay: Fatty Acid Synthase (FASN) Inhibition Scintillation Proximity Assay; type: biochemical; conditions: for IC50: mean where tested more than once, ~ = standard error of pIC50 larger than 0.5; for inhibition at 10 µM: read-out: FASN % Effect @1E−05M
T1 construct: 10 μL hFASN enzyme (full length, 300 ng, purified in house); made in house
Outline: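 Purified full-length human FASN (300 ng) incubated 60 min at room temperature with NADPH, [3H]-acetyl-CoA and malonyl-CoA in 100 mM KH2PO4 pH 7.5, 1 mM DTT; compound at 30 μM to 0.01 μM. [3H]-palmitate captured by SPA imaging beads; IC50 from 4-parameter fit, reported as pIC50.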

[2] = molecular target: T2, FASN Keto-reductase Domain (Homo sapiens, UniProt P49327); assay: Fatty Acid Synthase Keto-Reductase Domain (FASN KR) Inhibition; type: biochemical; conditions: mean where tested more than once; read-out: FASN K-R Domain pIC50 (converted)
T2 construct: 10 μL hFASN enzyme (full length, 300 ng, purified in house) and 360 μM NADPH; made in house
Outline: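 Full-length human FASN (300 ng) in 100 mM KH2PO4 pH 7.5 with 360 μM NADPH and 180 mM ethyl acetoacetate (stock); A340 decrease read over 20 min at room temperature.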

A2780 ovarian cells [3] = assay: A2780 Ovarian Cell Proliferation Assay in Lipid Reduced Medium, without Palmitate; type: cell-based; conditions: Homo sapiens, A2780; lipid reduced medium, without palmitate, 96 h, MTT; read-out: Proliferation A2780 w/o Palmitate pIC50 (converted)
Outline: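 A2780 cells were seeded in 10% FCS medium and switched next day to 10% lipid-reduced serum without palmitate. Compounds at 0.01–30 μM were added with 0.2% DMSO, 0.2% fatty-acid-free BSA and 0.25% ethanol final. After 96 h, MTT absorbance at 544 nm was normalized to plate controls, and IC50/pIC50 came from a 4-parameter logistic fit.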

A2780 ovarian cells [4] = assay: A2780 Ovarian Cell Proliferation Assay in Lipid Reduced Medium, with Palmitate (control); type: cell-based; conditions: Homo sapiens, A2780; lipid reduced medium, 25 μM palmitate, 96 h, MTT; read-out: Proliferation A2780 with Palmitate pIC50 (converted)
Outline: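 A2780 cells were seeded in RPMI1640 with 10% FCS, then switched next day to medium with 10% lipid-reduced serum. Compound was added with final 25 μM palmitate, 0.2% fatty-acid-free BSA and 0.2% DMSO, and incubated 96 h at 37 °C. Read-out was MTT absorbance at 544 nm; pIC50 = −log(IC50) from curve fit.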

T1 sequence (P49327 whole entry): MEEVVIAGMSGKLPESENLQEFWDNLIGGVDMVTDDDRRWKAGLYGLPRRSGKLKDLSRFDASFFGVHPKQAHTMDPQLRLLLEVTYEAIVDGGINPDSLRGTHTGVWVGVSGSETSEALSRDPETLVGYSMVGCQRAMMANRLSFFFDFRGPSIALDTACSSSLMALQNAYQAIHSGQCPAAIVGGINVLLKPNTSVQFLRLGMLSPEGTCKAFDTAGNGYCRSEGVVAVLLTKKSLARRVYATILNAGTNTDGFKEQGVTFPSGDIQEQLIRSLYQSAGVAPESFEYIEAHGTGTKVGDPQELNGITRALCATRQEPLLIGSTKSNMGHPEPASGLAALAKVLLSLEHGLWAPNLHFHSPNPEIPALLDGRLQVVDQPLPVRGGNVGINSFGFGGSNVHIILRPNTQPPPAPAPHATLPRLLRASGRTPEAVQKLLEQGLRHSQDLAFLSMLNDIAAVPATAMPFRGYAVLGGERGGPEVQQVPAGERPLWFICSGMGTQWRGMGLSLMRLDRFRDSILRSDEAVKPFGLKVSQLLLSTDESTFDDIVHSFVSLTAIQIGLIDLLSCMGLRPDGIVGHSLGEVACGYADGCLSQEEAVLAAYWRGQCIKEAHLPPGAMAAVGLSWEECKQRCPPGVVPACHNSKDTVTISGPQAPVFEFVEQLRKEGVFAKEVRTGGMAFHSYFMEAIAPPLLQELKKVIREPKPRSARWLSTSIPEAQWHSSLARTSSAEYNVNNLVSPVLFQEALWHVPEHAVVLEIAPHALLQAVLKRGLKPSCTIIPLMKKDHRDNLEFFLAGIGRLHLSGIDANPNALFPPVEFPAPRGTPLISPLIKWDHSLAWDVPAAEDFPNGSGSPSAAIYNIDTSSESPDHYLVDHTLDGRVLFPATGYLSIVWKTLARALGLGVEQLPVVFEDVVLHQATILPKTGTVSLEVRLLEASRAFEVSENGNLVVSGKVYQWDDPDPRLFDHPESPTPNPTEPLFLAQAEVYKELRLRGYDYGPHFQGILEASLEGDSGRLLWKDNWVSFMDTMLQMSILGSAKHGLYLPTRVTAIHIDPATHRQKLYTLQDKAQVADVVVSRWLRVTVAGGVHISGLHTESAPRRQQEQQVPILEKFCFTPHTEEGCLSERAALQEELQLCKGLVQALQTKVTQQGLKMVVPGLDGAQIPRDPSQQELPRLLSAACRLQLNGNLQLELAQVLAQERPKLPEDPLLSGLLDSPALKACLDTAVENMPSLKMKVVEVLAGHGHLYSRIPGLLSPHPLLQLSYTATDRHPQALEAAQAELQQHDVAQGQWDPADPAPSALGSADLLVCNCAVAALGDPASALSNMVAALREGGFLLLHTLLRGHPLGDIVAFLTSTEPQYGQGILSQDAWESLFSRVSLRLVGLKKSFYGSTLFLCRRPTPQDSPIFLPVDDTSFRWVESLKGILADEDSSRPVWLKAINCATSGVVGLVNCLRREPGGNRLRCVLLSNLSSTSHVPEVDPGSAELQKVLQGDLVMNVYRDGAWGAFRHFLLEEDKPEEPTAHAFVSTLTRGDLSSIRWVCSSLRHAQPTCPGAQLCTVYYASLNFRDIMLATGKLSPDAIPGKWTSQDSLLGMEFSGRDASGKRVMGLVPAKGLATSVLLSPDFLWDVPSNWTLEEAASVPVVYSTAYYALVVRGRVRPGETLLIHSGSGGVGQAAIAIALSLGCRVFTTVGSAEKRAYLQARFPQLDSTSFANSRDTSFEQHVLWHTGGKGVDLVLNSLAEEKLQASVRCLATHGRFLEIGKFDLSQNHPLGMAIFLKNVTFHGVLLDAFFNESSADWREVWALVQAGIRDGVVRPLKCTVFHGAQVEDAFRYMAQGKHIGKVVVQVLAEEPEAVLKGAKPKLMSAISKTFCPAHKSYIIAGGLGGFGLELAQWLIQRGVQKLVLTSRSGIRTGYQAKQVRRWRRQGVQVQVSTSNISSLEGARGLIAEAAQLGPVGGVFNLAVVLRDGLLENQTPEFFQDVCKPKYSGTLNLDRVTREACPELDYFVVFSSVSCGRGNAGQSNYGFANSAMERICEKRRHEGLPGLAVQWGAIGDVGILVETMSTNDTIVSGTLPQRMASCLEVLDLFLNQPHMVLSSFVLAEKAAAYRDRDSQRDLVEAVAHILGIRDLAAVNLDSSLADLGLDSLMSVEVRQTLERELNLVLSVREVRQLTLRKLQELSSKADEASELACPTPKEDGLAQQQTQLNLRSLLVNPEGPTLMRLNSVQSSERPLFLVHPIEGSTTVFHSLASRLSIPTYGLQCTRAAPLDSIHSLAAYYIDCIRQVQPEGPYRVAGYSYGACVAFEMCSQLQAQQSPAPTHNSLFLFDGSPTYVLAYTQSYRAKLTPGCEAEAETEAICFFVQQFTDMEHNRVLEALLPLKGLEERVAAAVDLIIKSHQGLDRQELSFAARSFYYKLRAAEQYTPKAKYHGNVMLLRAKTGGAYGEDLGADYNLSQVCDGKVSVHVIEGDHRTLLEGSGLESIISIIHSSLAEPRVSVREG
T2 sequence (P49327 whole entry, the tested form may be a part): as the sequence (P49327 whole entry) above

Row | Compound | IC50 [1] | inhibition at 10 µM [1] | IC50 [2] | IC50 (A2780 ovarian cells [3]) | IC50 (A2780 ovarian cells [4])
1 | Cc1ccc(C(=O)N2CCC(c3ccc(-c4cnn(C)c4)cc3)CC2)cc1NC(=O)C1CCN(C2CCCC2)C1 (stereo not drawn) [Compound 189, 1-cyclopentyl-N-(2-methyl-5-(4-(4-(1-methyl-1H-pyrazol-4-yl)phenyl)piperidine-1-carbonyl)phenyl)pyrrolidine-3-carboxamide] | 126 nM | 102% | 309 nM | 263 nM | > 10000 nM
2 | Cc1ccc(C(=O)N2CC(c3ccc(-c4cnn(C)c4)cc3)C2)cc1NC(=O)c1ccccn1 [Compound 80, N-(2-methyl-5-(3-(4-(1-methyl-1H-pyrazol-4-yl)phenyl)azetidine-1-carbonyl)phenyl)picolinamide] | 51.3 nM | 110% | 234 nM | 692 nM | > 15100 nM
3 | CCCCCCN1CCC(C(=O)Nc2cc(C(=O)N3CCC(c4ccc(-c5cnn(C)c5)cc4)CC3)ccc2C)C1 (stereo not drawn) [Compound 218, 1-hexyl-N-(2-methyl-5-(4-(4-(1-methyl-1H-pyrazol-4-yl)phenyl)piperidine-1-carbonyl)phenyl)pyrrolidine-3-carboxamide] | 145 nM | 105% | 389 nM | 407 nM | 8510 nM
4 | Cc1ccc(C(=O)N2CCC(c3ccc(-c4ccccc4C)cc3)CC2)cc1NC(=O)c1ccc(NC(C)C)nc1 [Compound 232, 6-(isopropylamino)-N-(2-methyl-5-(4-(2′-methyl-[1,1′-biphenyl]-4-yl)piperidine-1-carbonyl)phenyl)nicotinamide] | 324 nM | 85% | 490 nM | 389 nM | 6610 nM

The next molecules have a lower IC50 [1] than those just listed; values first:

Row | IC50 [1] | inhibition at 10 µM [1] | IC50 [2] | IC50 (A2780 ovarian cells [3]) | IC50 (A2780 ovarian cells [4]) | Compound
5 | 28.8 nM | 104% | 47.9 nM | 67.6 nM | > 10000 nM | COc1ccc(C(=O)Nc2cc(C(=O)N3CCC(c4ccc(-c5cnn(C)c5)cc4)CC3)ccc2C)cn1 [Compound 113, 6-methoxy-N-(2-methyl-5-(4-(4-(1-methyl-1H-pyrazol-4-yl)phenyl)piperidine-1-carbonyl)phenyl)nicotinamide]
6 | 14.5 nM | 119% | 31.6 nM | ~23.4 nM | > 15100 nM | Cc1ccc(C(=O)N2CC(c3ccc(-c4cnn(C)c4)cc3)C2)cc1NC(=O)c1ccc(NC2CCC2)nc1 [Compound 109, 6-(cyclobutylamino)-N-(2-methyl-5-(3-(4-(1-methyl-1H-pyrazol-4-yl)phenyl)azetidine-1-carbonyl)phenyl)nicotinamide]
7 | 25.1 nM | 104% | 40.7 nM | 16.6 nM | > 10000 nM | Cc1ccc(C(=O)N2CCC(c3ccc(-c4cnn(C)c4)cc3)CC2)cc1NC(=O)C1CCN(C2CCCC2)CC1 [Compound 180, 1-cyclopentyl-N-(2-methyl-5-(4-(4-(1-methyl-1H-pyrazol-4-yl)phenyl)piperidine-1-carbonyl)phenyl)piperidine-4-carboxamide]
8 | 22.9 nM | 104% | 33.9 nM | ~5.75 nM | > 10000 nM | Cc1ccc(C(=O)N2CC(c3ccc(-c4cnn(C)c4)cc3)C2)cc1NC(=O)c1cnc(N2CCOCC2)nc1 [Compound 159, N-(2-methyl-5-(3-(4-(1-methyl-1H-pyrazol-4-yl)phenyl)azetidine-1-carbonyl)phenyl)-2-morpholinopyrimidine-5-carboxamide]
9 | 42.7 nM | 104% | 120 nM | 115 nM | > 10000 nM | Cc1ccc(C(=O)Nc2cc(C(=O)N3CCC(c4ccc(-c5cnn(C)c5)cc4)CC3)ccc2C)s1 [Compound 157, 5-methyl-N-(2-methyl-5-(4-(4-(1-methyl-1H-pyrazol-4-yl)phenyl)piperidine-1-carbonyl)phenyl)thiophene-2-carboxamide]
